These results are taken from US8372871B2, “Histidinol dehydrogenase inhibitors, and use thereof as medicaments” (priority 2008, dated 2013).

The test system of one series is B. suis. As to the kind of experiment: microbe, parasite or virus in culture. It is filed as cell-based, Brucella suis. Particulars: for inhibition at 50 µM / inhibition at 100 µM: Brucella suis, 168 h, read-out: Effects on the growth of B. suis (%) (inhibition of bacterial growth).
For series [1], the target named is B. suis histidinol dehydrogenase (Brucella suis biovar 1, UniProt Q8G2R2). Nature of the series: biochemical. It is filed as biochemical.
Sequence of B. suis histidinol dehydrogenase (Q8G2R2 whole entry, looked up): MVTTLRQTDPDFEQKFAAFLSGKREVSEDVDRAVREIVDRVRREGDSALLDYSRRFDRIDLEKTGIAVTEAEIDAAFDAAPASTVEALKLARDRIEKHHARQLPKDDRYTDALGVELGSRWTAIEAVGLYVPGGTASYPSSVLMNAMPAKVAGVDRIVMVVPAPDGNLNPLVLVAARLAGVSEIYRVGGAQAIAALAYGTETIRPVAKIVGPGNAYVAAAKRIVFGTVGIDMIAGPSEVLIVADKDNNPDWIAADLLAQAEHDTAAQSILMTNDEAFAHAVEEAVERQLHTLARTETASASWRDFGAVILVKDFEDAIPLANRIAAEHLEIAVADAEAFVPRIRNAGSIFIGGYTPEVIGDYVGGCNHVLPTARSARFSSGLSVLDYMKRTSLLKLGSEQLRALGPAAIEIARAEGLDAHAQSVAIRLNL

Each structure is given as a SMILES string. pIC50: −log10 of the molar value.

Turning to `N[C@@H](Cc1c[nH]cn1)C(=O)Cc1ccc(-c2ccc(Br)cc2)cc1` (hydrate or solvate), the melting point (commonly the temperature, or range, at which the solid turns liquid) was 199 °C (dec.).
On the same count and under the same terms, for `N[C@@H](Cc1c[nH]cn1)C(=O)Cc1ccc(-c2ccc(-c3ccccc3)cc2)cc1` (hydrate or solvate) the value was 200 °C (dec.); for `N[C@@H](Cc1c[nH]cn1)C(=O)Cc1ccc(/C=C/c2ccc(-c3ccccc3)cc2)cc1` (hydrate or solvate), 200 °C (dec.); for `N[C@@H](Cc1c[nH]cn1)C(=O)Cc1ccc(C#Cc2ccc(-c3ccccc3)cc2)cc1` (hydrate or solvate), 196 °C (dec.).
Consider `Cc1ccc(-c2ccc(CC(=O)[C@@H](N)Cc3c[nH]cn3)cc2)cc1` (hydrate or solvate) [Compound 2a, (3S)-3-amino-4-(1H-imidazol-4-yl)-1-(4′-methylbiphenyl-4-yl)butan-2-one dihydrochlorhydrate], for which the melting point was 203 °C (dec.).
On the same count and under the same terms, for `CCCCc1ccc(-c2ccc(CC(=O)[C@@H](N)Cc3c[nH]cn3)cc2)cc1` (hydrate or solvate) [Compound 2b, (3S)-3-amino-1-(4′-butylbiphenyl-4-yl)-4-(1H-imidazol-4-yl) butan-2-one dihydrochlorhydrate] the value was 155 °C (dec.); for `COc1ccc(-c2ccc(CC(=O)[C@@H](N)Cc3c[nH]cn3)cc2)cc1` (hydrate or solvate) [Compound 2c, (3S)-3-amino-4-(1H-imidazol-4-yl)-1-(4′-methoxybiphenyl-4-yl)butan-2-one dihydrochlorhydrate], 210 °C (dec.).
For the compound `N[C@@H](Cc1c[nH]cn1)C(=O)Cc1ccc(-c2ccc(C(F)(F)F)cc2)cc1` (hydrate or solvate) [Compound 2d, (3S)-3-amino-4-(1H-imidazol-4-yl)-1-[4′-(trifluoromethyl)biphenyl-4-yl]butan-2-one dihydrochlorhydrate], the melting point is 149 °C (dec.).
On the same count and under the same terms, then `N[C@@H](Cc1c[nH]cn1)C(=O)Cc1ccc(-c2ccc(Oc3ccccc3)cc2)cc1` (hydrate or solvate) [Compound 2f, (3S)-3-amino-4-(1H-imidazol-4-yl)-1-(4′-phenoxybiphenyl-4-yl)butan-2-one dihydrochlorhydrate], with 198 to 200 °C; and `N[C@@H](Cc1c[nH]cn1)C(=O)Cc1ccc(-c2ccc3ccccc3c2)cc1` (hydrate or solvate) [Compound 2h, (3S)-3-amino-4-(1H-imidazol-4-yl)-1-[4-(2-naphthhyl)phenyl] butan-2-one dihydrochlorhydrate], with 205 °C (dec.); and `N[C@@H](Cc1c[nH]cn1)C(=O)Cc1ccc(CCc2ccccc2)cc1` (hydrate or solvate) [Compound 2i, (3S)-3-amino-4-(1H-imidazol-4-yl)-1-[4-(2-phenylethyl)phenyl] butan-2-one dihydrochlorhydrate], with 168 to 170 °C.
With `N[C@@H](Cc1c[nH]cn1)C(=O)Cc1ccc(/C=C/c2ccccc2)cc1` (hydrate or solvate) [Compound 2j, (3S)-3-amino-4-(1H-imidazol-4-yl)-1-{4-[(E)-2-phenylvinyl]phenyl}butan-2-one dihydrochlorhydrate], the melting point was 195 °C (dec.).
On to `Cc1ccc(/C=C/c2ccc(CC(=O)[C@@H](N)Cc3c[nH]cn3)cc2)cc1` (hydrate or solvate) [Compound 2k, (3S)-3-amino-4-(1H-imidazol-4-yl)-1-{4-[(E)-2-(4-methylphenyl)vinyl]phenyl}butan-2-one dihydrochlorhydrate], for which the melting point was 200 °C (dec.).
Same read-out and setting: for `N[C@@H](Cc1c[nH]cn1)C(=O)Cc1ccc(/C=C/c2ccc(C(F)(F)F)cc2)cc1` (hydrate or solvate) [Compound 2l, (3S)-3-amino-4-(1H-imidazol-4-yl)-1-(4-{(E)-2-[4-(trifluoromethyl)phenyl]vinyl}phenyl) butan-2-one dihydrochlorhydrate] the value was 186 °C (dec.); for `N[C@@H](Cc1c[nH]cn1)C(=O)Cc1ccc(/C=C/Cc2ccccc2)cc1` (hydrate or solvate) [Compound 2m, (3S)-3-amino-4-(1H-imidazol-4-yl)-1-{4-[(1E)-3-phenylprop-1-en-1-yl]phenyl}butan-2-one dihydrochlorhydrate], 178 to 180 °C.
Take `N[C@@H](Cc1c[nH]cn1)C(=O)Cc1ccc(C#Cc2ccccc2)cc1` (hydrate or solvate) [Compound 3a, (3S)-3-amino-4-(1H-imidazol-4-yl)-1-[4-(phenylethynyl)phenyl] butan-2-one dihydrochlorhydrate]: the melting point was 194 °C (dec.).
On to `Cc1ccc(C#Cc2ccc(CC(=O)[C@@H](N)Cc3c[nH]cn3)cc2)cc1` (hydrate or solvate) [Compound 3b, (3S)-3-amino-4-(1H-imidazol-4-yl)-1-{4-[(4-methylphenyl)ethynyl]phenyl}butan-2-one dihydrochlorhydrate], for which the melting point was 181 °C (dec.).
Same read-out and setting: then `CCCCCc1ccc(C#Cc2ccc(CC(=O)[C@@H](N)Cc3c[nH]cn3)cc2)cc1` (hydrate or solvate) [Compound 3d, (3S)-3-amino-4-(1H-imidazol-4-yl)-1-{4-[(4-pentylphenyl)ethynyl]phenyl}butan-2-one dihydrochlorhydrate], with 184 °C (dec.).
`Cc1ccc(-c2ccc(CC(=O)[C@@H](N)Cc3c[nH]cn3)cc2)cc1` [Compound 2a, (3S)-3-amino-4-(1H-imidazol-4-yl)-1-(4′-methylbiphenyl-4-yl)butan-2-one dihydrochlorhydrate]: in the series on B. suis, the inhibition (as a rule, the percentage by which the read-out fell short of the control) at 50 µM amounted to 30% and the inhibition at 100 µM was determined as 40%. The pIC50 (in general, the negative decadic logarithm of the IC50, by convention in mol/L) in series [1] is 7.52.
In the case of `CCCCc1ccc(-c2ccc(CC(=O)[C@@H](N)Cc3c[nH]cn3)cc2)cc1` [Compound 2b, (3S)-3-amino-1-(4′-butylbiphenyl-4-yl)-4-(1H-imidazol-4-yl) butan-2-one dihydrochlorhydrate], in the series on B. suis, the inhibition at 50 µM is 50% and the inhibition at 100 µM is 60%. The negative logarithm of the IC50 (pIC50) in series [1] is 7.40.
On to `COc1ccc(-c2ccc(CC(=O)[C@@H](N)Cc3c[nH]cn3)cc2)cc1` [Compound 2c, (3S)-3-amino-4-(1H-imidazol-4-yl)-1-(4′-methoxybiphenyl-4-yl)butan-2-one dihydrochlorhydrate], for which, in the series with B. suis, the inhibition at 50 µM is 30% and the inhibition at 100 µM is 60%. This compound also gave a pIC50 in series [1] of 7.70.
As to `N[C@@H](Cc1c[nH]cn1)C(=O)Cc1ccc(-c2ccc(C(F)(F)F)cc2)cc1` [Compound 2d, (3S)-3-amino-4-(1H-imidazol-4-yl)-1-[4′-(trifluoromethyl)biphenyl-4-yl]butan-2-one dihydrochlorhydrate], in the series on B. suis, the inhibition at 50 µM worked out at 70% and the inhibition at 100 µM was 90%. The compound further gave a pIC50 in series [1] of 7.52.
On the same counts, the results for `N[C@@H](Cc1c[nH]cn1)C(=O)Cc1ccc(-c2ccc(Oc3ccccc3)cc2)cc1` [Compound 2f, (3S)-3-amino-4-(1H-imidazol-4-yl)-1-(4′-phenoxybiphenyl-4-yl)butan-2-one dihydrochlorhydrate] are 70%, 90% and 7.15.
Regarding `N[C@@H](Cc1c[nH]cn1)C(=O)Cc1ccc(-c2ccc3ccccc3c2)cc1` [Compound 2h, (3S)-3-amino-4-(1H-imidazol-4-yl)-1-[4-(2-naphthhyl)phenyl] butan-2-one dihydrochlorhydrate], in the series on B. suis, the “Inhibition of the growth of the bacteria in liquid medium” value is on record as “completely inhibit”, the inhibition at 50 µM was found to be 100% and the inhibition at 100 µM came to 100%. The compound further gave a pIC50 in series [1] of 7.52.
Turning to `N[C@@H](Cc1c[nH]cn1)C(=O)Cc1ccc(CCc2ccccc2)cc1` [Compound 2i, (3S)-3-amino-4-(1H-imidazol-4-yl)-1-[4-(2-phenylethyl)phenyl] butan-2-one dihydrochlorhydrate], the pIC50 in series [1] is 7.89.
In turn, `N[C@@H](Cc1c[nH]cn1)C(=O)Cc1ccc(/C=C/c2ccccc2)cc1` [Compound 2j, (3S)-3-amino-4-(1H-imidazol-4-yl)-1-{4-[(E)-2-phenylvinyl]phenyl}butan-2-one dihydrochlorhydrate] had a pIC50 in series [1] of 7.60.
Take `Cc1ccc(/C=C/c2ccc(CC(=O)[C@@H](N)Cc3c[nH]cn3)cc2)cc1` [Compound 2k, (3S)-3-amino-4-(1H-imidazol-4-yl)-1-{4-[(E)-2-(4-methylphenyl)vinyl]phenyl}butan-2-one dihydrochlorhydrate]: in the series on B. suis, the “Inhibition of the growth of the bacteria in liquid medium” value was “completely inhibit”, the inhibition at 50 µM amounted to 100% and the inhibition at 100 µM was found to be 100%. In series [1], the pIC50 was 7.40.
Take `N[C@@H](Cc1c[nH]cn1)C(=O)Cc1ccc(/C=C/c2ccc(C(F)(F)F)cc2)cc1` [Compound 2l, (3S)-3-amino-4-(1H-imidazol-4-yl)-1-(4-{(E)-2-[4-(trifluoromethyl)phenyl]vinyl}phenyl) butan-2-one dihydrochlorhydrate]: the pIC50 in series [1] was 7.19.
The compound `N[C@@H](Cc1c[nH]cn1)C(=O)Cc1ccc(/C=C/Cc2ccccc2)cc1` [Compound 2m, (3S)-3-amino-4-(1H-imidazol-4-yl)-1-{4-[(1E)-3-phenylprop-1-en-1-yl]phenyl}butan-2-one dihydrochlorhydrate] gave a pIC50 in series [1] of 7.52.
In turn, `Cc1ccc(C#Cc2ccc(CC(=O)[C@@H](N)Cc3c[nH]cn3)cc2)cc1` [Compound 3b, (3S)-3-amino-4-(1H-imidazol-4-yl)-1-{4-[(4-methylphenyl)ethynyl]phenyl}butan-2-one dihydrochlorhydrate] showed a pIC50 in series [1] of 7.40.
Consider `CC(C)(C)c1ccc(C#Cc2ccc(CC(=O)[C@@H](N)Cc3c[nH]cn3)cc2)cc1` [Compound 3c, (3S)-3-amino-1-{4-[(4-tert-butylphenyl)ethynyl]phenyl}-4-(1H-imidazol-4-yl)butan-2-one dihydrochlorhydrate], for which, in the series on B. suis, the inhibition at 50 µM came out at 30% and the inhibition at 100 µM was determined as 30%. For the same compound, in series [1], the pIC50 is 7.19.
